From patent US9458133B2, “Isoquinolines as potassium ion channel inhibitors” (BRISTOL-MYERS SQUIBB COMPANY, priority 2013, dated 2016)
Where “and” joins values, the source holds several entries; their conditions need not be identical. Equal entries are not always repeated.

Target: T1, human Kv 1.5 (Homo sapiens, UniProt P22460)
T1 construct: expressed in transfected cells; host or cells: mouse L-929 fibroblasts stably expressing human Kv1.5
Experiment: Block of IKur current in patch clamped L-929 cells stably expressing human Kv1.5
Type: cell-based
Conditions: patch clamped mammalian L-929 cells expressing human Kv1.5 (IKur); for inhibition at 0.3 µM: L929, 0.3 μM, read-out: KV1_5% Inh L929 @0.3 μM
Excerpt: Synders, D. J. et al., “A rapidly activating and slowly inactivating potassium channel cloned from human heart: functional analysis after stable mammalian cell culture expression”, J. Gen. Physiol., 101:513-543 (1993). […]

T1 sequence (P22460 whole entry): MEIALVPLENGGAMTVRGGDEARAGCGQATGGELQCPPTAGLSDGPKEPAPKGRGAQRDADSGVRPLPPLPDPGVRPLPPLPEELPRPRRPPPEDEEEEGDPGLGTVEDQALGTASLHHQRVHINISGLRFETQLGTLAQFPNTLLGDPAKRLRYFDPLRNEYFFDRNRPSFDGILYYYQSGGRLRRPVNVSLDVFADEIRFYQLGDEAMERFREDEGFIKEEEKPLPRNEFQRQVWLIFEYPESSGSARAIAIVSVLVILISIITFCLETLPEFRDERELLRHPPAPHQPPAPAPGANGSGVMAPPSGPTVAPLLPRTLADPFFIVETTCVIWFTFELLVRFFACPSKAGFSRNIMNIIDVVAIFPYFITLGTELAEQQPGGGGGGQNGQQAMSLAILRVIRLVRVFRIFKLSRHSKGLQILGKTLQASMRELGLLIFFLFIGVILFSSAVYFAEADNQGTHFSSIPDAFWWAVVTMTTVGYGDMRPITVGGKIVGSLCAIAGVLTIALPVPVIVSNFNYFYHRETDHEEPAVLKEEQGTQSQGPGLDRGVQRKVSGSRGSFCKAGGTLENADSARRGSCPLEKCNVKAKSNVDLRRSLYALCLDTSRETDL

Row | inhibition at 0.3 µM [%] | KV1_5% Inh L929 @0.3 μM (0.3 μM) | Structure (SMILES)
1 | 98.3 | – | Nc1ccc(-c2c(Cl)nc(NCc3ccccn3)c3c(-c4ccccc4)cccc23)cc1 [Example 68, 4-(4-aminophenyl)-3-chloro-8-phenyl-N-(pyridin-2-ylmethyl)isoquinolin-1-amine]
2 | 57.5 | – | CC(=O)Nc1ccc(-c2cc3cccc(-c4ccccc4)c3c(NCc3ccccn3)n2)cn1 [Example 64, N-(5-(8-phenyl-1-(pyridin-2-ylmethylamino)isoquinolin-3-yl)pyridin-2-yl)acetamide]
3 | 67.5 | – | CC(Nc1nc(Cl)c(-c2cccc(S(N)(=O)=O)c2)c2cccc(-c3ccccc3)c12)c1ccccc1 (stereo not shown) [Example 79, 3-(3-chloro-8-phenyl-1-(1-phenylethylamino)isoquinolin-4-yl)benzenesulfonamide]
4 | 99 | – | Nc1ccc(-c2c(Cl)nc(NCc3ccccn3)c3c(-c4ccccc4)cccc23)cn1 [Example 77, 4-(6-aminopyridin-3-yl)-3-chloro-8-phenyl-N-(pyridin-2-ylmethyl)isoquinolin-1-amine]
5 | 98.1 | – | CS(=O)(=O)Nc1cncc(-c2c(Cl)nc(NCc3ccccn3)c3c(-c4ccccc4)cccc23)c1 [Example 47, N-(5-(3-chloro-8-phenyl-1-(pyridin-2-ylmethylamino)isoquinolin-4-yl)pyridin-3-yl)methanesulfonamide]
6 | 54.1 | – | NC(=O)c1cccc(-c2cc3cccc(-c4ccccc4)c3c(NCc3ccccn3)n2)c1 [Example 41, 3-(8-phenyl-1-(pyridin-2-ylmethylamino)isoquinolin-3-yl)benzamide]
7 | 54.1 | – | NS(=O)(=O)c1cncc(-c2cc3cccc(-c4ccccc4)c3c(NCc3ccc(F)cc3F)n2)c1 [Example 50, 5-(1-(2,4-difluorobenzylamino)-8-phenylisoquinolin-3-yl)pyridine-3-sulfonamide]
8 | 98.4 | – | CC(=O)Nc1cncc(-c2c(Cl)nc(NCc3ccccn3)c3c(-c4ccccc4)cccc23)c1 [Example 46, N-(5-(3-chloro-8-phenyl-1-(pyridin-2-ylmethylamino)isoquinolin-4-yl)pyridin-3-yl)acetamide]
9 | 96.2 | – | CC(=O)Nc1cccc(-c2c(Cl)nc(NCc3ccccn3)c3c(-c4ccccc4)cccc23)c1 [Example 60, N-(3-(3-chloro-8-phenyl-1-(pyridin-2-ylmethylamino)isoquinolin-4-yl)phenyl)acetamide]
10 | 67.7 | – | NS(=O)(=O)c1cncc(-c2cc3cccc(-c4ccccc4)c3c(N[C@H]3CCN(Cc4ccccc4)C3)n2)c1 [Example 71, (S)-5-(1-(1-benzylpyrrolidin-3-ylamino)-8-phenylisoquinolin-3-yl)pyridine-3-sulfonamide]
11 | 91 | – | NS(=O)(=O)c1cccc(-c2c(Cl)nc(NCc3ccccc3)c3c(-c4ccccc4)cccc23)c1 [Example 78, 3-(1-(benzylamino)-3-chloro-8-phenylisoquinolin-4-yl)benzenesulfonamide]
12 | 18.6 | – | NS(=O)(=O)c1cccc(-c2cc3cccc(-c4ccccc4)c3c(NCCCc3ccccc3)n2)c1 [Example 44, 3-(8-phenyl-1-(3-phenylpropylamino)isoquinolin-3-yl)benzenesulfonamide]
13 | 98.4 | – | CS(=O)(=O)Nc1ccc(-c2c(Cl)nc(NCc3ccccn3)c3c(-c4ccccc4)cccc23)cc1 [Example 69, N-(4-(3-chloro-8-phenyl-1-(pyridin-2-ylmethylamino)isoquinolin-4-yl)phenyl)methanesulfonamide]
14 | 98.4 | – | NS(=O)(=O)c1cccc(-c2c(Cl)nc(NCc3ccccn3)c3c(-c4ccccc4)cccc23)c1 [Example 84, 3-(3-chloro-8-phenyl-1-(pyridin-2-ylmethylamino)isoquinolin-4-yl)benzenesulfonamide]
15 | 98.6 | – | NC(=O)Nc1cncc(-c2c(Cl)nc(NCc3ccccn3)c3c(-c4ccccc4)cccc23)c1 [Example 48, 1-(5-(3-chloro-8-phenyl-1-(pyridin-2-ylmethylamino)isoquinolin-4-yl)pyridin-3-yl)urea]
16 | 97.2 | – | NS(=O)(=O)c1ccc(-c2cnc(NCc3ccccn3)c3c(-c4ccccc4)cccc23)cc1 [Example 76, 4-(8-phenyl-1-(pyridin-2-ylmethylamino)isoquinolin-4-yl)benzenesulfonamide]

Continued, molecule first:

Row | Structure (SMILES) | inhibition at 0.3 µM [%] | KV1_5% Inh L929 @0.3 μM (0.3 μM)
17 | NS(=O)(=O)c1cncc(-c2cnc(NCc3ccccc3)c3c(-c4ccccc4)cccc23)c1 [Example 15, 5-(1-(Benzylamino)-8-phenylisoquinolin-4-yl)pyridine-3-sulfonamide] | 96.2 | –
18 | Cc1c(-c2cncc(S(N)(=O)=O)c2)nc(NCc2ccccn2)c2c(-c3ccccc3)cccc12 [Example 8, 5-(4-Methyl-8-phenyl-1-(pyridin-2-ylmethylamino)isoquinolin-3-yl)pyridine-3-sulfonamide] | 61.4 | –
19 | NS(=O)(=O)c1cccc(-c2cc3cccc(-c4ccccc4)c3c(NCc3ccccn3)n2)c1 [Example 36, 3-(8-phenyl-1-(pyridin-2-ylmethylamino)isoquinolin-3-yl)benzenesulfonamide] | 94.6 | –
20 | NS(=O)(=O)c1cncc(-c2c(Cl)nc(NCc3ccccn3)c3c(-c4ccccc4)cccc23)c1 [Example 10, 5-(3-Chloro-8-phenyl-1-(pyridin-2-ylmethylamino)isoquinolin-4-yl)pyridine-3-sulfonamide] | 99 | –
21 | O=C(Nc1cccc(-c2cc3cccc(-c4ccccc4)c3c(NCc3ccccn3)n2)c1)N1CCOCC1 [Example 6, N-(3-(8-Phenyl-1-(pyridin-2-ylmethylamino)isoquinolin-3-yl)phenyl)morpholine-4-carboxamide] | 92.2 | –
22 | NC(=O)CC(=O)Nc1cccc(-c2c(Cl)nc(NCc3ccccn3)c3c(-c4ccccc4)cccc23)c1 [Example 13, N1-(3-(3-Chloro-8-phenyl-1-(pyridin-2-ylmethylamino)isoquinolin-4-yl)phenyl)malonamide] | 97.7 | –
23 | NS(=O)(=O)c1cncc(-c2c(Cl)nc(NCc3c(F)cccc3F)c3c(-c4ccccc4)cccc23)c1 [Example 27, 5-(3-chloro-1-(2,6-difluorobenzylamino)-8-phenylisoquinolin-4-yl)pyridine-3-sulfonamide] | 93.6 | –
24 | N#Cc1cccc(-c2cc3cccc(-c4ccccc4)c3c(NCc3ccccn3)n2)c1 [Example 39, 3-(8-phenyl-1-(pyridin-2-ylmethylamino)isoquinolin-3-yl)benzonitrile] | 66.8 | –
25 | CC(=O)Nc1cncc(-c2cc3cccc(-c4ccccc4)c3c(NCc3ccccn3)n2)c1 [Example 3, N-(5-(8-Phenyl-1-(pyridin-2-ylmethylamino)isoquinolin-3-yl)pyridin-3-yl)acetamide] | 71.9 | –
26 | c1ccc(CNc2ncc(-c3cncc(-c4nn[nH]n4)c3)c3cccc(-c4ccccc4)c23)cc1 [Example 19, 4-(5-(2H-Tetrazol-5-yl)pyridin-3-yl)-N-benzyl-8-phenylisoquinolin-1-amine] | 90 | –
27 | NC(=O)Nc1cccc(-c2cc3cccc(-c4ccccc4)c3c(NCc3ccccn3)n2)c1 [Example 38, 1-(3-(8-phenyl-1-(pyridin-2-ylmethylamino)isoquinolin-3-yl)phenyl)urea] | 90.8 | –
28 | CNS(=O)(=O)c1cccc(-c2cc3cccc(-c4ccccc4)c3c(NCc3ccccn3)n2)c1 [Example 34, N-methyl-3-(8-phenyl-1-(pyridin-2-ylmethylamino)isoquinolin-3-yl)benzenesulfonamide] | 93.5 | –
29 | CS(=O)(=O)N(c1cncc(-c2cc3cccc(-c4ccccc4)c3c(NCc3ccccn3)n2)c1)S(C)(=O)=O [Example 32, N-(methylsulfonyl)-N-(5-(8-phenyl-1-(pyridin-2-ylmethylamino)isoquinolin-3-yl)pyridin-3-yl)methanesulfonamide] | 70.7 | –
30 | N#Cc1nc(NCc2ccccc2)c2c(-c3ccccc3)cccc2c1-c1cncc(S(N)(=O)=O)c1 [Example 16, 5-(1-(Benzylamino)-3-cyano-8-phenylisoquinolin-4-yl)pyridine-3-sulfonamide] | 88.6 | –
31 | O=C(O)c1cncc(-c2c(Cl)nc(NCc3ccccn3)c3c(-c4ccccc4)cccc23)c1 [Example 12, 5-(3-Chloro-8-phenyl-1-(pyridin-2-ylmethylamino)isoquinolin-4-yl)nicotinic acid] | 52.3 | –
32 | CS(=O)(=O)Nc1cccc(-c2cc3cccc(-c4ccccc4)c3c(NCc3ccccn3)n2)c1 [Example 35, N-(3-(8-phenyl-1-(pyridin-2-ylmethylamino)isoquinolin-3-yl)phenyl)methanesulfonamide] | 36.2 | –
33 | CC(Nc1nc(Cl)c(-c2cncc(S(N)(=O)=O)c2)c2cccc(-c3ccccc3)c12)c1ccccn1 (stereo not shown) [Example 26, 5-(3-chloro-8-phenyl-1-(1-(pyridin-2-yl)ethylamino)isoquinolin-4-yl)pyridine-3-sulfonamide] | 98.8 | –
34 | NC(=O)c1cncc(-c2cc3cccc(-c4ccccc4)c3c(NCc3ccccn3)n2)c1 [Example 9, 5-(8-Phenyl-1-((pyridin-2-ylmethyl)amino)isoquinolin-3-yl)nicotinamide] | – | 81.32% and 50.45%
35 | NC(=O)Nc1cncc(-c2cc3cccc(-c4ccccc4)c3c(NCc3ccccn3)n2)c1 [Example 4, 1-(5-(8-Phenyl-1-(pyridin-2-ylmethylamino)isoquinolin-3-yl)pyridin-3-yl)urea] | 88.7 | –
36 | Cc1nc(NCc2ccccc2)c2c(-c3ccccc3)cccc2c1-c1cncc(S(N)(=O)=O)c1 [Example 14, 5-(1-(Benzylamino)-3-methyl-8-phenylisoquinolin-4-yl)pyridine-3-sulfonamide] | 93.2 | –
37 | NS(=O)(=O)c1cncc(-c2cc3cccc(-c4ccccc4)c3c(NCc3ccccc3Cl)n2)c1 [Example 37, 5-(1-(2-chlorobenzylamino)-8-phenylisoquinolin-3-yl)pyridine-3-sulfonamide] | 34.2 | –
